Data: PubChem BioAssay AID248 (DTP/NCI, 2004)
Where “and” joins values, the source holds several entries; their conditions need not be identical. Equal values may be shown once. Toxic doses and inconclusive results are not listed.

System: L1210 leukemia ip in BDF1 mice, survival T/C
Test: NCI In Vivo Anticancer Drug Screen. Data for tumor model L1210 Leukemia (intraperitoneal) in B6D2F1 (BDF1) mice
Conditions: vehicle: saline, higher = longer survival
In short: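 Value reflects the ratio of survival in compound-treated mice to survival in vehicle-treated controls, with both groups carrying the same transplanted tumor.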

For `N[C@H](C(=O)O)[C@@H]1CC(Cl)=NO1`, the T/C (endpoint: mean survival time, dose: 0.1 mg/kg/injection, schedule: Q03HX024 (ip)) was 120 % of control, the T/C (endpoint: mean survival time, dose: 0.39 mg/kg/injection, schedule: Q01DX009 (sc)) was 119 % of control and 121 % of control and the T/C (endpoint: mean survival time, dose: 0.39 mg/kg/injection, schedule: Q03HX024 (ip)) was 194 % of control. For the same molecule, the T/C (endpoint: mean survival time, dose: 0.78 mg/kg/injection, schedule: Q01DX009 (oral)) was 123 % of control, the T/C (endpoint: mean survival time, dose: 1.0 mg/kg/injection, schedule: Q01DX009 (ip)) was 123 % of control and 124 % of control and the T/C (endpoint: mean survival time, dose: 1.56 mg/kg/injection, schedule: Q01DX009 (oral)) was 151 % of control. The T/C (endpoint: mean survival time, dose: 3.12 mg/kg/injection, schedule: Q01DX001 (ip)) was 107 % of control, the T/C (endpoint: mean survival time, dose: 3.12 mg/kg/injection, schedule: Q04DX003 (ip)) was 107 % of control and the T/C (endpoint: mean survival time, dose: 4.0 mg/kg/injection, schedule: Q01DX009 (ip)) was 152 % of control. The T/C (endpoint: mean survival time, dose: 6.2 mg/kg/injection, schedule: Q04DX003 (ip)) was 115 % of control and 116 % of control, the T/C (endpoint: mean survival time, dose: 6.25 mg/kg/injection, schedule: Q01DX001 (ip)) was 112 % of control and the T/C (endpoint: mean survival time, dose: 6.25 mg/kg/injection, schedule: Q01DX009 (oral)) was 107 % of control and 110 % of control. The T/C (endpoint: mean survival time, dose: 6.25 mg/kg/injection, schedule: Q01DX009 (sc)) was 105 % of control, the T/C (endpoint: mean survival time, dose: 12.5 mg/kg/injection, schedule: Q01DX001 (ip)) was 119 % of control and the T/C (endpoint: mean survival time, dose: 12.5 mg/kg/injection, schedule: Q01DX009 (sc)) was 101 % of control. The T/C (endpoint: mean survival time, dose: 12.5 mg/kg/injection, schedule: Q04DX003 (ip)) was 109 % of control and 110 % of control, the T/C (endpoint: mean survival time, dose: 16.0 mg/kg/injection, schedule: Q01DX009 (ip)) was 102 % of control and the T/C (endpoint: mean survival time, dose: 25.0 mg/kg/injection, schedule: Q01DX009 (sc)) was 94 % of control and 95 % of control. For the same molecule, the T/C (endpoint: mean survival time, dose: 25.0 mg/kg/injection, schedule: Q03HX008 (ip)) was 153 % of control, the T/C (endpoint: mean survival time, dose: 25.0 mg/kg/injection, schedule: Q04DX003 (ip)) was 116 % of control and 120 % of control and the T/C (endpoint: mean survival time, dose: 32.0 mg/kg/injection, schedule: Q01DX009 (ip)) was 104 % of control and 115 % of control. For the same molecule, the T/C (endpoint: mean survival time, dose: 50.0 mg/kg/injection, schedule: Q04DX003 (ip)) was 120 % of control and 123 % of control, the T/C (endpoint: median survival time, dose: 0.25 mg/kg/injection, schedule: Q03HX024 (ip)) was 117 % of control and the T/C (endpoint: median survival time, dose: 0.39 mg/kg/injection, schedule: Q03HX024 (ip)) was 175 % of control. The T/C (endpoint: median survival time, dose: 0.5 mg/kg/injection, schedule: Q03HX016 (ip)) was 124 % of control, the T/C (endpoint: median survival time, dose: 0.78 mg/kg/injection, schedule: Q01DX009 (ip)) was 153 % of control and the T/C (endpoint: median survival time, dose: 0.78 mg/kg/injection, schedule: Q03HX016 (ip)) was 150 % of control. The T/C (endpoint: median survival time, dose: 0.78 mg/kg/injection, schedule: Q03HX024 (ip)) was 191 % of control, the T/C (endpoint: median survival time, dose: 1.0 mg/kg/injection, schedule: Q01DX009 (sc)) was 122 % of control and the T/C (endpoint: median survival time, dose: 1.0 mg/kg/injection, schedule: Q03HX008 (ip)) was 120 % of control. For the same molecule, the T/C (endpoint: median survival time, dose: 1.0 mg/kg/injection, schedule: Q03HX024 (ip)) was 159 % of control, the T/C (endpoint: median survival time, dose: 1.56 mg/kg/injection, schedule: Q03HX016 (ip)) was 159 % of control and the T/C (endpoint: median survival time, dose: 2.0 mg/kg/injection, schedule: Q03HX016 (ip)) was 150 % of control. For the same molecule, the T/C (endpoint: median survival time, dose: 2.0 mg/kg/injection, schedule: Q03HX024 (ip)) was 181 % of control, the T/C (endpoint: median survival time, dose: 2.0 mg/kg/injection, schedule: Q04DX003 (ip)) was 106 % of control and the T/C (endpoint: median survival time, dose: 3.12 mg/kg/injection, schedule: Q01DX009 (ip)) was 94 % of control. For the same molecule, the T/C (endpoint: median survival time, dose: 3.12 mg/kg/injection, schedule: Q03HX008 (ip)) was 154 % of control, the T/C (endpoint: median survival time, dose: 3.12 mg/kg/injection, schedule: Q03HX016 (ip)) was 166 % of control and the T/C (endpoint: median survival time, dose: 4.0 mg/kg/injection, schedule: Q01DX009 (ip)) was 158 % of control. For the same molecule, the T/C (endpoint: median survival time, dose: 4.0 mg/kg/injection, schedule: Q03HX016 (ip)) was 153 % of control, the T/C (endpoint: median survival time, dose: 4.0 mg/kg/injection, schedule: Q04DX003 (ip)) was 110 % of control and the T/C (endpoint: median survival time, dose: 4.0 mg/kg/injection, schedule: Q08DX002 (ip)) was 104 % of control. For the same molecule, the T/C (endpoint: median survival time, dose: 6.25 mg/kg/injection, schedule: Q03HX016 (ip)) was 182 % of control, the T/C (endpoint: median survival time, dose: 8.0 mg/kg/injection, schedule: Q01DX001 (ip)) was 100 % of control and the T/C (endpoint: median survival time, dose: 8.0 mg/kg/injection, schedule: Q01DX001 (sc)) was 114 % of control. The T/C (endpoint: median survival time, dose: 8.0 mg/kg/injection, schedule: Q01DX009 (ip)) was 165 % of control, the T/C (endpoint: median survival time, dose: 8.0 mg/kg/injection, schedule: Q01DX009 (sc)) was 162 % of control and the T/C (endpoint: median survival time, dose: 8.0 mg/kg/injection, schedule: Q03HX016 (ip)) was 162 % of control. The T/C (endpoint: median survival time, dose: 8.0 mg/kg/injection, schedule: Q08DX002 (ip)) was 114 % of control, the T/C (endpoint: median survival time, dose: 12.5 mg/kg/injection, schedule: Q01DX001 (ip)) was 115 % of control and the T/C (endpoint: median survival time, dose: 12.5 mg/kg/injection, schedule: Q03HX016 (ip)) was 171 % of control. For the same molecule, the T/C (endpoint: median survival time, dose: 12.5 mg/kg/injection, schedule: Q03HX024 (ip)) was 93 % of control, the T/C (endpoint: median survival time, dose: 12.5 mg/kg/injection, schedule: Q04DX003 (ip)) was 153 % of control and the T/C (endpoint: median survival time, dose: 12.5 mg/kg/injection, schedule: Q08DX002 (ip)) was 151 % of control. For the same molecule, the T/C (endpoint: median survival time, dose: 16.0 mg/kg/injection, schedule: Q01DX001 (ip)) was 99 % of control, the T/C (endpoint: median survival time, dose: 16.0 mg/kg/injection, schedule: Q01DX001 (sc)) was 105 % of control and the T/C (endpoint: median survival time, dose: 16.0 mg/kg/injection, schedule: Q01DX009 (oral)) was 94 % of control. The T/C (endpoint: median survival time, dose: 16.0 mg/kg/injection, schedule: Q01DX009 (sc)) was 109 % of control, the T/C (endpoint: median survival time, dose: 16.0 mg/kg/injection, schedule: Q03HX016 (ip)) was 155 % of control and the T/C (endpoint: median survival time, dose: 16.0 mg/kg/injection, schedule: Q04DX003 (ip)) was 120 % of control. For the same molecule, the T/C (endpoint: median survival time, dose: 16.0 mg/kg/injection, schedule: Q08DX002 (ip)) was 106 % of control, the T/C (endpoint: median survival time, dose: 25.0 mg/kg/injection, schedule: Q01DX001 (ip)) was 108 % of control and the T/C (endpoint: median survival time, dose: 25.0 mg/kg/injection, schedule: Q04DX003 (ip)) was 154 % of control. For the same molecule, the T/C (endpoint: median survival time, dose: 32.0 mg/kg/injection, schedule: Q01DX001 (ip)) was 113 % of control, the T/C (endpoint: median survival time, dose: 32.0 mg/kg/injection, schedule: Q01DX001 (sc)) was 107 % of control and the T/C (endpoint: median survival time, dose: 32.0 mg/kg/injection, schedule: Q01DX009 (ip)) was 103 % of control. For the same molecule, the T/C (endpoint: median survival time, dose: 32.0 mg/kg/injection, schedule: Q08DX002 (ip)) was 114 % of control, the T/C (endpoint: median survival time, dose: 50.0 mg/kg/injection, schedule: Q01DX001 (ip)) was 122 % of control and the T/C (endpoint: median survival time, dose: 50.0 mg/kg/injection, schedule: Q04DX003 (ip)) was 188 % of control. The T/C (endpoint: median survival time, dose: 50.0 mg/kg/injection, schedule: Q08DX002 (ip)) was 151 % of control, the T/C (endpoint: median survival time, dose: 64.0 mg/kg/injection, schedule: Q01DX001 (ip)) was 113 % of control and the T/C (endpoint: median survival time, dose: 64.0 mg/kg/injection, schedule: Q01DX001 (oral)) was 112 % of control and 114 % of control. For the same molecule, the T/C (endpoint: median survival time, dose: 64.0 mg/kg/injection, schedule: Q01DX001 (sc)) was 116 % of control, the T/C (endpoint: median survival time, dose: 64.0 mg/kg/injection, schedule: Q08DX002 (ip)) was 109 % of control and the T/C (endpoint: median survival time, dose: 128.0 mg/kg/injection, schedule: Q01DX001 (ip)) was 116 % of control. The T/C (endpoint: median survival time, dose: 128.0 mg/kg/injection, schedule: Q01DX001 (oral)) was 119 % of control, the T/C (endpoint: median survival time, dose: 128.0 mg/kg/injection, schedule: Q01DX001 (sc)) was 115 % of control and the T/C (endpoint: median survival time, dose: 128.0 mg/kg/injection, schedule: Q08DX002 (ip)) was 119 % of control. The T/C (endpoint: median survival time, dose: 256.0 mg/kg/injection, schedule: Q01DX001 (ip)) was 110 % of control, the T/C (endpoint: median survival time, dose: 256.0 mg/kg/injection, schedule: Q01DX001 (oral)) was 116 % of control and the T/C (endpoint: median survival time, dose: 256.0 mg/kg/injection, schedule: Q01DX001 (sc)) was 120 % of control. For the same molecule, the T/C (endpoint: median survival time, dose: 400.0 mg/kg/injection, schedule: Q01DX001 (ip)) was 93 % of control and the T/C (endpoint: median survival time, dose: 400.0 mg/kg/injection, schedule: Q08DX002 (ip)) was 116 % of control.
In the case of `CNC(=O)NC(=O)C(C)(C)Oc1ccc(Cl)cc1`, the T/C (endpoint: mean survival time, dose: 100.0 mg/kg/injection, schedule: Q04DX003 (ip)) is reported as 97 % of control and the T/C (endpoint: mean survival time, dose: 200.0 mg/kg/injection, schedule: Q04DX003 (ip)) is reported as 94 % of control.
